This note sets out measurements from ChEMBL document CHEMBL4251656, “Design, synthesis, and biological evaluation of novel catecholopyrimidine based PDE4 inhibitor for the treatment of atopic dermatitis” (Eur J Med Chem, 2018).

Calls of active or inactive are those of the source. The rule behind the calls is not given here.

Data set [1] concerns the target T1, 3',5'-cyclic-AMP phosphodiesterase 4B (Homo sapiens, UniProt Q07343). In words: Inhibition of recombinant human full length N-terminal GST-tagged PDE4B1 expressed in baculovirus infected Sf9 cells using cAMP as substrate after 1 hr by LANCE TR-FRET assay. (In TR-FRET formats the signal depends on donor and acceptor labels being close together.)
The target of data set [2] is T2, 3',5'-cyclic-AMP phosphodiesterase 4A (Homo sapiens, UniProt P27815). Put plainly: Inhibition of recombinant full length human N-terminal GST-tagged PDE4A1 expressed in baculovirus infected Sf9 cells using cAMP as substrate after 1 hr by LANCE TR-FRET assay.
T2 sequence (P27815 whole entry): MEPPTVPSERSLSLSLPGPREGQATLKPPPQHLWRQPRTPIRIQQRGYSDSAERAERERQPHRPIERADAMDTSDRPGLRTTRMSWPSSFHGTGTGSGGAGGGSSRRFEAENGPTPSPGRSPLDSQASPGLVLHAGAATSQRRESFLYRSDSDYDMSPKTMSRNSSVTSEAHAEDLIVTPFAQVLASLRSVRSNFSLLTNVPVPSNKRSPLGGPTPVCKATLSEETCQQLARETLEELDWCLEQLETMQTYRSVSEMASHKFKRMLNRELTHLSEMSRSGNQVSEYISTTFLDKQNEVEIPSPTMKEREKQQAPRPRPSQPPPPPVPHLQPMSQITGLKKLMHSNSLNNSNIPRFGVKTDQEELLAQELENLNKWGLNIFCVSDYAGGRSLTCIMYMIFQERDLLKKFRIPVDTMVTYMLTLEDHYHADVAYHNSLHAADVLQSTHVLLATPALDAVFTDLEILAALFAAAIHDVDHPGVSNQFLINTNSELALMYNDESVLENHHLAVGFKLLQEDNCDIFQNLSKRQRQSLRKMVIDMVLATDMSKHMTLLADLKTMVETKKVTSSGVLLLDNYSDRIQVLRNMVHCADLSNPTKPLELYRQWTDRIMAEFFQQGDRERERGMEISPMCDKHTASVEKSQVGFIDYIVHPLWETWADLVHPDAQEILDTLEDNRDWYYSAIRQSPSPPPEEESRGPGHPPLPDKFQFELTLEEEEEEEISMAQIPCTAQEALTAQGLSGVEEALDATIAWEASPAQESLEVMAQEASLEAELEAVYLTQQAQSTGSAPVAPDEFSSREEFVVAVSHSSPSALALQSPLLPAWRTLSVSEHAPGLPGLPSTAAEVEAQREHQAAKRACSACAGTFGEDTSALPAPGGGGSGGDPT
In data set [3] the target is Dual 3',5'-cyclic-AMP and -GMP phosphodiesterase 11A (Homo sapiens, UniProt Q9HCR9). In words: Inhibition of PDE11A (unknown origin) using cAMP as substrate after 1 hr by LANCE TR-FRET assay.
Chain of Dual 3',5'-cyclic-AMP and -GMP phosphodiesterase 11A (Q9HCR9 whole entry): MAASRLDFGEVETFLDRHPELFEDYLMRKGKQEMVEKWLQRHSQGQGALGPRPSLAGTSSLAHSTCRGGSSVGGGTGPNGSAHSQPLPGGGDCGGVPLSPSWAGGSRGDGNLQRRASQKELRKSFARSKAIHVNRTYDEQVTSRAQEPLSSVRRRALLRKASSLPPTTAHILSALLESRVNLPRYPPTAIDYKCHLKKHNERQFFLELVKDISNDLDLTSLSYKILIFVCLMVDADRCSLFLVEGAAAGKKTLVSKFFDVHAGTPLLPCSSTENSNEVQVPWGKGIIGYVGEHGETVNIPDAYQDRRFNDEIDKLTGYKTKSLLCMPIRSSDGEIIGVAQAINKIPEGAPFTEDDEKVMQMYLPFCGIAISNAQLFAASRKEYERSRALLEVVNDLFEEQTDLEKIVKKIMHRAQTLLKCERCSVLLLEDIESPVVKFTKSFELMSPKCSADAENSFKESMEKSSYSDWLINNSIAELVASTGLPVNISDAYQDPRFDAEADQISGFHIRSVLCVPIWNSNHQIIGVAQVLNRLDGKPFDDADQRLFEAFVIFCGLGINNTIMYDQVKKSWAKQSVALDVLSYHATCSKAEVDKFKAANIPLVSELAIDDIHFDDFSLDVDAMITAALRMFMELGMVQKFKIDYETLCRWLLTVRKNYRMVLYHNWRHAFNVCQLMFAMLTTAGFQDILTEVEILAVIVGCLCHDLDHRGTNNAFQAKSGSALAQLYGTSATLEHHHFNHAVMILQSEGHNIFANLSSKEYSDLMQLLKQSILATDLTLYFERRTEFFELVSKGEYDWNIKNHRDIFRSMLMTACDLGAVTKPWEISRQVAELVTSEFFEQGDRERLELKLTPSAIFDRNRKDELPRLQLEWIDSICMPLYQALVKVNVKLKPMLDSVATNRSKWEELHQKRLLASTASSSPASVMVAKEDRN
In data set [4] the target is T1, 3',5'-cyclic-AMP phosphodiesterase 4B. Put plainly: Inhibition of recombinant full length human N-terminal GST-tagged PDE4B1 expressed in baculovirus infected Sf9 cells using cAMP as substrate after 1 hr by LANCE TR-FRET assay.
Data set [5] relates to Mus musculus. In words: Reversal of DNCB-induced atopic dermatitis-like symptoms in Balb/c mouse assessed as dorsal skin thickness administered topically once daily starting from day 6 post DNCB treatment up to 34 days (reference value: 1.19 millimeter). It is filed as functional.
Data set [6] relates to Mus musculus. In words: Reversal of DNCB-induced atopic dermatitis-like symptoms in Balb/c mouse assessed as reduction in epidermal thickness administered topically once daily starting from day 6 post DNCB treatment up to 34 days by hematoxylin and eosin staining based light microscopic method. The data set is classed as functional, organism-based.
Data set [7] concerns Mus musculus. Put plainly: Reversal of DNCB-induced atopic dermatitis-like symptoms in Balb/c mouse assessed as reduction in epidermal hyperplasia administered topically once daily starting from day 6 post DNCB treatment up to 34 days by hematoxylin and eosin staining based light microscopic method. The data set is classed as functional, organism-based.
Data set [8] concerns Mus musculus. Put plainly: Reversal of DNCB-induced atopic dermatitis-like symptoms in Balb/c mouse assessed as reduction in hypertrophy administered topically once daily starting from day 6 post DNCB treatment up to 34 days by hematoxylin and eosin staining based light microscopic method. It is filed as functional, organism-based.
Data set [9] deals with Mus musculus. In words: Reversal of DNCB-induced atopic dermatitis-like symptoms in Balb/c mouse assessed as reduction in skin scaling or dryness administered topically once daily starting from day 6 post DNCB treatment up to 34 days. It is filed as functional, organism-based.
For data set [10], the system named is Mus musculus. In words: Reversal of DNCB-induced atopic dermatitis-like symptoms in Balb/c mouse assessed as reduction in TNF-alpha level in skin administered topically once daily starting from day 6 post DNCB treatment up to 34 days. The data set is classed as functional, organism-based.
Data set [11] deals with Mus musculus. In words: Reversal of DNCB-induced atopic dermatitis-like symptoms in Balb/c mouse assessed as reduction in serum Ig-E level administered topically once daily starting from day 6 post DNCB treatment up to 34 days. The data set is classed as functional, organism-based.
For data set [12], the system named is Mus musculus. In words: Toxicity in Balb/c mouse assessed as induction of allergy administered topically once daily up to 34 days. The settings on record: in vivo, topical_or_ocular, 816 h. The data set is classed as organism-based.
In data set [13] the test system is Mus musculus. Put plainly: Reversal of DNCB-induced atopic dermatitis-like symptoms in Balb/c mouse assessed as reduction in hyperkeratosis administered topically once daily starting from day 6 post DNCB treatment up to 34 days by hematoxylin and eosin staining based light microscopic method. It is filed as functional, organism-based.
The test system of data set [14] is Mus musculus. In words: Reversal of DNCB-induced atopic dermatitis-like symptoms in Balb/c mouse assessed as reduction in inflammatory cell infilteration in epidermal and dermal region of skin administered topically once daily starting from day 6 post DNCB treatment up to 34 days by toluidine blue staining based light microscopic method. The data set is classed as functional, organism-based.

The subject of data set [15] is Mus musculus. Put plainly: Reversal of DNCB-induced atopic dermatitis-like symptoms in Balb/c mouse assessed as reduction in signs of edema administered topically once daily starting from day 6 post DNCB treatment up to 34 days by hematoxylin and eosin staining based light microscopic method. It is filed as functional, organism-based.
The test system of data set [16] is Mus musculus. Put plainly: Toxicity in Balb/c mouse assessed as effect on skin architecture administered topically once daily up to 34 days by hematoxylin and eosin staining based light microscopic method. The settings on record: in vivo, topical_or_ocular, 816 h. It is filed as organism-based.
Data set [17] deals with Mus musculus. Put plainly: Reversal of DNCB-induced atopic dermatitis-like symptoms in Balb/c mouse assessed as reduction in skin erosion administered topically once daily starting from day 6 post DNCB treatment up to 34 days. The data set is classed as functional, organism-based.
Data set [18] deals with Mus musculus. Put plainly: Reversal of DNCB-induced atopic dermatitis-like symptoms in Balb/c mouse assessed as reduction in erythema administered topically once daily starting from day 6 post DNCB treatment up to 34 days. It is filed as functional, organism-based.
For data set [19], the species on record is Homo sapiens. In words: Selectivity ratio of IC50 for nhibition of recombinant human N-terminal GST-tagged PDE4D7 (2 to 748 residues) expressed in baculovirus infected Sf9 cells to IC50 for recombinant full length human N-terminal GST-tagged PDE4B1 expressed in baculovirus infected Sf9 cells.
Data set [20] concerns Mus musculus. Put plainly: Reversal of DNCB-induced atopic dermatitis-like symptoms in Balb/c mouse assessed as reduction in hemorrhage administered topically once daily starting from day 6 post DNCB treatment up to 34 days. It is filed as functional, organism-based.
Data set [21] has as its system Mus musculus. In words: Reversal of DNCB-induced atopic dermatitis-like symptoms in Balb/c mouse assessed as reduction in excoriation administered topically once daily starting from day 6 post DNCB treatment up to 34 days. The data set is classed as functional, organism-based.
Data set [22] relates to Mus musculus. Put plainly: Reversal of DNCB-induced atopic dermatitis-like symptoms in Balb/c mouse assessed as reduction in edema administered topically once daily starting from day 6 post DNCB treatment up to 34 days. It is filed as functional, organism-based.
Data set [23] concerns Mus musculus. Put plainly: Reversal of DNCB-induced atopic dermatitis-like symptoms in Balb/c mouse assessed as reduction in scratching frequency administered topically once daily starting from day 6 post DNCB treatment up to 34 days. It is filed as functional, organism-based.
Data set [24] deals with 3',5'-cyclic-AMP phosphodiesterase 4D (Homo sapiens, UniProt Q08499). Put plainly: Inhibition of recombinant human N-terminal GST-tagged PDE4D7 (2 to 748 residues) expressed in baculovirus infected Sf9 cells using cAMP as substrate after 1 hr by LANCE TR-FRET assay.
Chain of 3',5'-cyclic-AMP phosphodiesterase 4D (Q08499 whole entry, the tested form may be a part): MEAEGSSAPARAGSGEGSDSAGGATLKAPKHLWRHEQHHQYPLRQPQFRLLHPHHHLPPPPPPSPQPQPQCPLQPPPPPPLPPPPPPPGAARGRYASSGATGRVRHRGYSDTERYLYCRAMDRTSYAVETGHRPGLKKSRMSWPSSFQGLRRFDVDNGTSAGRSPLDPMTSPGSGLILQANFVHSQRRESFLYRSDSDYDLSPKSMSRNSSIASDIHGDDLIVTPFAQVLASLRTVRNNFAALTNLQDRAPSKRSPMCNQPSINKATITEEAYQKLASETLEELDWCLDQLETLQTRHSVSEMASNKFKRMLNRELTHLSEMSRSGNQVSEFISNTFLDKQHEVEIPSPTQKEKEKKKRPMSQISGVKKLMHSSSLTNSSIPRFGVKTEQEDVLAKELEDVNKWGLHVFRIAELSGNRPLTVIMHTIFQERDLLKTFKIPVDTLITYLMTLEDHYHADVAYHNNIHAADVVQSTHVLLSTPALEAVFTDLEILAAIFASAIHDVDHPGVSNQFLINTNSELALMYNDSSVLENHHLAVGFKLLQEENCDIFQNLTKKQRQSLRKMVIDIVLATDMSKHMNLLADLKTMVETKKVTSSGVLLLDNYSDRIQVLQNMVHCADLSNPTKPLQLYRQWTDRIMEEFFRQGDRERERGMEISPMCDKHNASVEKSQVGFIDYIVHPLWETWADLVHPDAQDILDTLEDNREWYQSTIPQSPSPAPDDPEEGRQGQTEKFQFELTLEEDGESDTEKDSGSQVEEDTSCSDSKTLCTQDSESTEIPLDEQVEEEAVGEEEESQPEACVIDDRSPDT
The target of data set [25] is cGMP-inhibited 3',5'-cyclic phosphodiesterase 3B (Homo sapiens, UniProt Q13370). Put plainly: Inhibition of recombinant human N-terminal GST-tagged PDE3B (592-end residues) expressed in baculovirus infected Sf9 cells using cAMP as substrate after 1 hr by LANCE TR-FRET assay.
In data set [26] the target is T2, 3',5'-cyclic-AMP phosphodiesterase 4A. In words: Inhibition of recombinant human N-terminal GST-tagged PDE4A4 (2 to 886 residues) expressed in baculovirus infected Sf9 cells using cAMP as substrate after 1 hr by LANCE TR-FRET assay.
In data set [27] the target is 3',5'-cyclic-AMP phosphodiesterase 4C (Homo sapiens, UniProt Q08493). Put plainly: Inhibition of recombinant human full length N-terminal GST-tagged PDE4C1 expressed in baculovirus infected Sf9 cells using cAMP as substrate after 1 hr by LANCE TR-FRET assay.
Chain of 3',5'-cyclic-AMP phosphodiesterase 4C (Q08493 whole entry): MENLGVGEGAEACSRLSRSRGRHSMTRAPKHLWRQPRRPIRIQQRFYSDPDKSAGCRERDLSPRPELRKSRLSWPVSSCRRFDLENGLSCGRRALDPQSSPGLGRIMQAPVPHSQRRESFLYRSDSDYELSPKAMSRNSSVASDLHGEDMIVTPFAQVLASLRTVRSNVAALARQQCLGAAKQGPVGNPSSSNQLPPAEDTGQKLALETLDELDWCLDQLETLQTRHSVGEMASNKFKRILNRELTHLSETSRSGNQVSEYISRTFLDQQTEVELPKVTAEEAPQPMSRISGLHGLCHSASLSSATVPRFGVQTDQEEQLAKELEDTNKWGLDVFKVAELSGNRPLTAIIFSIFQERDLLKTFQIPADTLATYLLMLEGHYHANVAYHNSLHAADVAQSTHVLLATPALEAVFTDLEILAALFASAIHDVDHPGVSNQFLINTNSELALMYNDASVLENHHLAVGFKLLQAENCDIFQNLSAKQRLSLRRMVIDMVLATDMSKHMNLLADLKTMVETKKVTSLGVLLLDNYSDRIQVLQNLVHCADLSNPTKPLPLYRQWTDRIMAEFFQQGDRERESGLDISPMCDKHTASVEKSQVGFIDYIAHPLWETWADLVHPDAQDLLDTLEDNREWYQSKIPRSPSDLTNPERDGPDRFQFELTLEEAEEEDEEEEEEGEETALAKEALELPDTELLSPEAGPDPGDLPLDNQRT

T1 sequence (Q07343 whole entry): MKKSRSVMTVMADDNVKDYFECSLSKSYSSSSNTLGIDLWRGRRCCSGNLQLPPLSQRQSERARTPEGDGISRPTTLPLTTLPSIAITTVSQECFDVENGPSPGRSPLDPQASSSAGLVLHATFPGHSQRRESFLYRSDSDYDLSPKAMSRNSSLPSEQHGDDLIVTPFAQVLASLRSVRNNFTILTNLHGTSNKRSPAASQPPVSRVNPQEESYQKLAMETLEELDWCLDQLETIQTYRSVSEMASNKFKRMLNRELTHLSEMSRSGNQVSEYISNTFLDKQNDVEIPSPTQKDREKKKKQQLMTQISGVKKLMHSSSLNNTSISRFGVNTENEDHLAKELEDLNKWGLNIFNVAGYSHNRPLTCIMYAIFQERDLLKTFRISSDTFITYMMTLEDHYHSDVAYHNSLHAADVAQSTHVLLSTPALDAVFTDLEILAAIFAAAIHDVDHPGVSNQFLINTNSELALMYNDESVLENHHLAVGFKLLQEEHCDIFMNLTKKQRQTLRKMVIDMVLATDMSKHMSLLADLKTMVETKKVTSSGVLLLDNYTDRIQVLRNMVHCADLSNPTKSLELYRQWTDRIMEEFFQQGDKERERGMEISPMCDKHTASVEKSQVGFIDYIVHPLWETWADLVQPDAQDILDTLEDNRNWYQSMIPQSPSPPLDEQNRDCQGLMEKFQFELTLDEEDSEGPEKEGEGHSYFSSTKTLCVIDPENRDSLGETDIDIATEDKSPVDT

For the molecule `COc1ccc(NC(=O)c2cnc(SC)nc2N2CCOCC2)cc1OC`, the values for the IC50 in data set [1], in data set [2] and in data set [3] were 31 nM, 756 nM and 480 nM, respectively.

On to `COc1ccc(-c2nc(C(F)(F)F)ncc2C(=O)Nc2c(C(C)C)cccc2C(C)C)cc1OC`, for which the IC50 in data set [4] came to 222 nM.

For `COc1ccc(CCNC(=O)c2cnc(C(F)(F)F)nc2N2CCOCC2)cc1OC`, the IC50 in data set [4] turned out to be 150 nM.

For the molecule `COc1ccc(-c2nc(C(F)(F)F)ncc2C(=O)Nc2ccncc2)cc1OC`, the Activity in data set [5] is listed as 0.71 mm; in [12], “Non-Toxic”; in data set [16], “Non-Toxic”. Moreover, the result in data set [6], in data set [7], in [8], in data set [9], in data set [10] and in [11] was Active. Besides, the result in [13], in data set [14], in data set [15], in data set [17], in data set [18] and in data set [20] was Active. For the same molecule, the result in [21], in [22] and in data set [23] was Active. For the same molecule, the IC50 in data set [1] was determined as 15 nM; in data set [2] it was 98 nM; in data set [3], 250 nM. In data set [19], the Ratio IC50 turned out to be 7.

Take `COc1ccc(NC(=O)c2cnc(C(F)(F)F)nc2N2CCOCC2)cc1OC`: the half-inhibitory concentration (IC50) in data set [1] worked out at 67 nM; in [2] it was 678 nM; in data set [24], 385 nM; in data set [25] it was 950 nM; in data set [26], 100 nM; in [3], 1500 nM. Further, in [27], the half-maximal inhibitory concentration (IC50) is 156 nM.

Regarding `COc1ccc(CCNC(=O)c2cnc(SC)nc2N2CCN(CCO)CC2)cc1OC`, the IC50 in data set [4] came to 238 nM.

`COc1ccc(-c2nc(C(F)(F)F)ncc2C(=O)Nc2c(Cl)cncc2Cl)cc1OC`: the IC50 in data set [1] was 44 nM; in data set [2], 281 nM; in data set [24], 360 nM; in data set [25], 321 nM; in data set [26] it was 89 nM; in data set [3] it was 245 nM. The IC50 in [27] turned out to be 39 nM.

Turning to `COc1ccc(CCNC(=O)c2cnc(SC)nc2N2CCOCC2)cc1OC`, the IC50 in data set [4] is 61 nM; in data set [1] it was 61 nM; in data set [24], 136 nM; in [26], 284 nM; in data set [3], 659 nM; in data set [27], 326 nM.

The IC50 is the concentration that gives 50% inhibition.
